Reference: patent US12590091B2, “1H-pyrrolo[3,2-C]pyridine and 1H-pyrrolo[2,3-C]pyridine derivatives as TLR9 inhibitors for the treatment of fibrosis” (BRISTOL-MYERS SQUIBB COMPANY, priority 2020, dated 2026)

Experiments:
human TLR7 = target: T1, human TLR7 (Homo sapiens, UniProt Q9NYK1); assay: TLR7 inhibition reporter assay (HEK-Blue cells, SEAP reporter); type: cell-based; conditions: HEK-Blue cells overexpressing human TLR7, stimulated with gardiquimod 7.5 μM, 22 hour incubation
T1 construct: host or cells: HEK-Blue cells
T1 sequence (Q9NYK1 27-1049): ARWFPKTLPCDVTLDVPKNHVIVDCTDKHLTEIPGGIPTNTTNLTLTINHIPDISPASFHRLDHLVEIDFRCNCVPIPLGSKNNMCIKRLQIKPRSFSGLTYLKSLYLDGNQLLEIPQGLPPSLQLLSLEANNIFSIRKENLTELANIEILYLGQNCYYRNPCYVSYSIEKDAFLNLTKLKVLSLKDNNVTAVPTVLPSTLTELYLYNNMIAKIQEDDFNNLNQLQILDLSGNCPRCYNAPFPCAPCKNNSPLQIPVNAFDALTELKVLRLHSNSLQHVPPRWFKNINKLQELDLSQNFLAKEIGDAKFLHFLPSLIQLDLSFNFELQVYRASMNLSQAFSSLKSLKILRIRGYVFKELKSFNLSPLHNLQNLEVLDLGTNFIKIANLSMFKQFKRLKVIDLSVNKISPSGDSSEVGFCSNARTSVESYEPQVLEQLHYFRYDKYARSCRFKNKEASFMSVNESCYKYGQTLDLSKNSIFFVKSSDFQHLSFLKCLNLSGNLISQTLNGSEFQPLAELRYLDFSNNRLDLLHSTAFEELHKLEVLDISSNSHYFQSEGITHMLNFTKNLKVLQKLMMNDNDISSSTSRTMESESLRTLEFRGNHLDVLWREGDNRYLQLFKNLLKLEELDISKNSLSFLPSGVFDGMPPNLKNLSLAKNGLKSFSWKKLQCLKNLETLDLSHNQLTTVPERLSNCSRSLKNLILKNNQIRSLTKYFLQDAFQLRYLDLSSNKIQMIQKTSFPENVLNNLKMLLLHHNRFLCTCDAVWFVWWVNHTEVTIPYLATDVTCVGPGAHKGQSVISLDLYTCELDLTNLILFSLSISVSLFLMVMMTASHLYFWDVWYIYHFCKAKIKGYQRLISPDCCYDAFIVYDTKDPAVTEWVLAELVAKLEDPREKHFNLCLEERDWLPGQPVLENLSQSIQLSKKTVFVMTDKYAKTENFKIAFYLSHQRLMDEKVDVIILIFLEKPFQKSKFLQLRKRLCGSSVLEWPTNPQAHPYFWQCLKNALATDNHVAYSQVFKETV
How it was run: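 Human TLR7/8/9 HEK-Blue reporter lines; dose range 0.05 nM–50 μM; 30 min RT preincubation; stimulus gardiquimod 7.5 μM / R848 15.9 μM / ODN2006 5 nM respectively; 22 h, 37 °C; SEAP detected colorimetrically.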

human TLR9 = target: T2, human TLR9 (Homo sapiens, UniProt Q9NR96); assay: TLR9 inhibition reporter assay (HEK-Blue cells, SEAP reporter); type: cell-based; conditions: HEK-Blue cells overexpressing human TLR9, stimulated with ODN2006 5 nM, 22 hour incubation
T2 construct: host or cells: HEK-Blue cells
T2 sequence (Q9NR96 26-1032): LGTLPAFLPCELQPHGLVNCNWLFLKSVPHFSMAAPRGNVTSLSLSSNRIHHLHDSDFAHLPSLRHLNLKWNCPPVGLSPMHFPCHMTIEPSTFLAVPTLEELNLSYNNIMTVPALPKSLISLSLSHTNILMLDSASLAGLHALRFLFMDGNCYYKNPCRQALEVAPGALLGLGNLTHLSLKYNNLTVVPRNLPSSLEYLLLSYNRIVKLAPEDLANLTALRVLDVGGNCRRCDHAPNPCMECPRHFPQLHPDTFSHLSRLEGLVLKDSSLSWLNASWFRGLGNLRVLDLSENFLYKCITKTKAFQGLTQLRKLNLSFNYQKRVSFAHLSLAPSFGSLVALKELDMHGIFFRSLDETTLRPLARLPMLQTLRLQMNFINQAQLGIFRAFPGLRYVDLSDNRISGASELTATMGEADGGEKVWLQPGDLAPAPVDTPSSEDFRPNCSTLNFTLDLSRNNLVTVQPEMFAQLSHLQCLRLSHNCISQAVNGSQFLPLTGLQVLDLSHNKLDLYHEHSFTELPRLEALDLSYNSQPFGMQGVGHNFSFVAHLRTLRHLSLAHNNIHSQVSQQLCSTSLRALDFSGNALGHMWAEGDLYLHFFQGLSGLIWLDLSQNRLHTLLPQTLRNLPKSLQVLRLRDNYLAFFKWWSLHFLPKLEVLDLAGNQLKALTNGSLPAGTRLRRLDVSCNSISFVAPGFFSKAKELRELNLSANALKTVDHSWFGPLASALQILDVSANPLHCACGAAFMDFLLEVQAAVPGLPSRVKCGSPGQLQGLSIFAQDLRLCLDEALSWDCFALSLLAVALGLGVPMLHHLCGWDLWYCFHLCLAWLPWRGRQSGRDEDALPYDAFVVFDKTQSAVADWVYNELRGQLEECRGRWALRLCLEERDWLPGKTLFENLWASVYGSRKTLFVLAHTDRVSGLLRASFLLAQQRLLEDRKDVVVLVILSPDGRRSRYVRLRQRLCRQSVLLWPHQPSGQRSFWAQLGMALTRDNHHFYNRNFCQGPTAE
How it was run: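 HEK-Blue cells overexpressing human TLR9 (25,000 cells/well), NF-κB/AP-1-driven SEAP reporter. Compounds at 0.05 nM–50 μM final, 22 h at 37 °C, 5% CO2 with agonist. SEAP detected with HEK-Blue Detection medium; % inhibition versus agonist plus DMSO and known-inhibitor wells.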

SMILES	IC50 (human TLR7)	IC50 (human TLR9)
CCOC(=O)N1CCC(N2CCC(c3cc4c(cn3)cc(-c3ccc(OC)c(OC)c3)n4C)CC2)CC1 [Example 7, Ethyl 4-(2-(3,4-dimethoxyphenyl)-1-methyl-1H-pyrrolo[3,2-c]pyridin-6-yl)-[1,4′-bipiperidine]-1′-carboxylate]	> 50000 nM	111 nM
Cc1nc(-c2cc(F)c(N3CCN4CCCC4C3)cc2F)cc2c1cc(-c1ccc(S(C)(=O)=O)cc1)n2C (stereo not drawn) [Example 97, 6-(2,5-difluoro-4-(hexahydropyrrolo[1,2-a]pyrazin-2(1H)-yl)phenyl)-1,4-dimethyl-2-(4-(methylsulfonyl)phenyl)-1H-pyrrolo[3,2-c]pyridine]	3800 nM	202 nM
Cc1nc(-c2cc(F)c(C3(O)CCN(CC(C)C)CC3)cc2F)cc2c1cc(-c1ccc(S(C)(=O)=O)cc1)n2C [Example 94, 4-(4-(1,4-dimethyl-2-(4-(methylsulfonyl)phenyl)-1H-pyrrolo[3,2-c]pyridin-6-yl)-2,5-difluorophenyl)-1-isobutylpiperidin-4-ol]	3600 nM	143 nM
COCCN1CCC(O)(c2cc(F)c(-c3cc4c(cc(-c5ccc(S(C)(=O)=O)cc5)n4C)c(C)n3)cc2F)CC1 [Example 95, 4-(4-(1,4-dimethyl-2-(4-(methylsulfonyl)phenyl)-1H-pyrrolo[3,2-c]pyridin-6-yl)-2,5-difluorophenyl)-1-(2-methoxyethyl)piperidin-4-ol]	3200 nM	537 nM
Cc1nc(-c2ccc(C3(O)CC4CCC(C3)N4CC(C)C)c(F)c2)cc2c1cc(-c1ccc(S(C)(=O)=O)cc1)n2C [Example 91, (1R,3r,5S)-3-(4-(1,4-dimethyl-2-(4-(methylsulfonyl)phenyl)-1H-pyrrolo[3,2-c]pyridin-6-yl)-2-fluorophenyl)-8-isobutyl-8-azabicyclo[3.2.1]octan-3-ol]	30800 nM	735 nM
COc1ccc(-c2cc3cnc(C4CCN(Cc5ccc(C)nc5)CC4)cc3n2C)cc1OC [Example 8, 2-(3,4-Dimethoxyphenyl)-1-methyl-6-(1-((6-methylpyridin-3-yl)methyl)piperidin-4-yl)-1H-pyrrolo[3,2-c]pyridine]	6800 nM	58 nM
COCCN1CCC(O)(c2ccc(-c3cc4c(cc(-c5ccc(S(C)(=O)=O)cc5)n4C)c(C)n3)cc2F)CC1 [Example 92, 4-(4-(1,4-dimethyl-2-(4-(methylsulfonyl)phenyl)-1H-pyrrolo[3,2-c]pyridin-6-yl)-2-fluorophenyl)-1-(2-methoxyethyl)piperidin-4-ol]	7000 nM	109 nM
Cc1nc(-c2ccc(C3(O)CCN(C4CC4)CC3)c(F)c2)cc2c1cc(-c1ccc(S(C)(=O)=O)cc1)n2C [Example 93, 1-cyclopropyl-4-(4-(1,4-dimethyl-2-(4-(methylsulfonyl)phenyl)-1H-pyrrolo[3,2-c]pyridin-6-yl)-2-fluorophenyl)piperidin-4-ol]	9900 nM	1430 nM
Cc1nc(-c2cc(F)c(N3CCN4CCCC4C3)c(F)c2)cc2c1cc(-c1ccc(S(C)(=O)=O)cc1)n2C (stereo not drawn) [Example 98, 6-(3,5-difluoro-4-(hexahydropyrrolo[1,2-a]pyrazin-2(1H)-yl)phenyl)-1,4-dimethyl-2-(4-(methylsulfonyl)phenyl)-1H-pyrrolo[3,2-c]pyridine]	700 nM	212 nM
Cc1nc(-c2cc(F)c(C3(O)CCN(C4CC4)CC3)cc2F)cc2c1cc(-c1ccc(S(C)(=O)=O)cc1)n2C [Example 96, 1-cyclopropyl-4-(4-(1,4-dimethyl-2-(4-(methylsulfonyl)phenyl)-1H-pyrrolo[3,2-c]pyridin-6-yl)-2,5-difluorophenyl)piperidin-4-ol]	2900 nM	162 nM
Cc1nc(-c2ccc(C3(O)CCN(CC(C)C)CC3)c(F)c2)cc2c1cc(-c1ccc(S(C)(=O)=O)cc1)n2C [Example 90, 4-(4-(1,4-dimethyl-2-(4-(methylsulfonyl)phenyl)-1H-pyrrolo[3,2-c]pyridin-6-yl)-2-fluorophenyl)-1-isobutylpiperidin-4-ol]	7800 nM	141 nM
Cc1nc(-c2cc(F)c(N3CCN(C4CCOCC4)CC3)c(F)c2)cc2c1cc(-c1ccc(S(C)(=O)=O)cc1)n2C [Example 89, 6-(3,5-difluoro-4-(4-(tetrahydro-2H-pyran-4-yl)piperazin-1-yl)phenyl)-1,4-dimethyl-2-(4-(methylsulfonyl)phenyl)-1H-pyrrolo[3,2-c]pyridine]	> 50000 nM	226 nM
